Assay results from patent publication US12479866B2, “Boron-containing rho kinase inhibitors” (Percipiad, Inc., priority 2019, dated 2025).

What was measured:
Assay in all cases: Kinase Selectivity Profiling General Panel (ADP-Glo)
Format in all cases: biochemical
[1] = biological target: CK1a1 (Homo sapiens (Human), UniProt P48729); conditions: 1 μM compound, read-out: Percent enzyme activity inhibition, CK1a1
Procedure: (§1) After this incubation, 5 μl of ADP-Glo™ reagent was added to 5 μl reaction and incubated for 40 minutes. Then, 10 μl of Kinase Detection Reagent added to all assay wells in the assay plate and incubated at room temperature for 30 minutes. […]

[2] = biological target: CAMK4 (Homo sapiens (Human), UniProt Q16566); conditions: 1 μM compound, read-out: Percent enzyme activity inhibition, CAMK4
Procedure: as §1

[3] = biological target: CHK1 (Homo sapiens (Human), UniProt O14757); conditions: 1 μM compound, read-out: Percent enzyme activity inhibition, CHK1
Procedure: as §1

[4] = biological target: GSK3b (Homo sapiens (Human), UniProt P49841); conditions: 1 μM compound, read-out: Percent enzyme activity inhibition, GSK3b
Procedure: as §1

[5] = biological target: FGFR1 (Homo sapiens (Human), UniProt P11362); conditions: 1 μM compound, read-out: Percent enzyme activity inhibition, FGFR1
Procedure: as §1

[6] = biological target: AKT1 (Homo sapiens (Human), UniProt P31749); conditions: 1 μM compound, read-out: Percent enzyme activity inhibition, AKT1
Procedure: as §1

[7] = biological target: DAPK1 (Homo sapiens (Human), UniProt P53355); conditions: 1 μM compound, read-out: Percent enzyme activity inhibition, DAPK1
Procedure: as §1

[8] = biological target: IKKb (Homo sapiens (Human), UniProt O14920); conditions: 1 μM compound, read-out: Percent enzyme activity inhibition, IKKb
Procedure: as §1

[9] = biological target: MINK1 (Homo sapiens (Human), UniProt Q8N4C8); conditions: 1 μM compound, read-out: Percent enzyme activity inhibition, MINK1
Procedure: as §1

[10] = biological target: CK1g1 (Homo sapiens (Human), UniProt Q9HCP0); conditions: 1 μM compound, read-out: Percent enzyme activity inhibition, CK1g1
Procedure: as §1

[11] = biological target: Aurora A (Homo sapiens (Human), UniProt O14965); conditions: 1 μM compound, read-out: Percent enzyme activity inhibition, Aurora A
Procedure: as §1

[12] = biological target: SYK (Homo sapiens (Human), UniProt P43405); conditions: 1 μM compound, read-out: Percent enzyme activity inhibition, SYK
Procedure: as §1

[13] = biological target: PKCa (Homo sapiens (Human), UniProt P17252); conditions: 1 μM compound, read-out: Percent enzyme activity inhibition, PKCa
Procedure: as §1

[14] = biological target: PAK1/CDC42 (Homo sapiens (Human), UniProt Q13153); conditions: 1 μM compound, read-out: Percent enzyme activity inhibition, PAK1/CDC42
Procedure: as §1

[15] = biological target: IRAK4 (Homo sapiens (Human), UniProt Q9NWZ3); conditions: 1 μM compound, read-out: Percent enzyme activity inhibition, IRAK4
Procedure: as §1

[16] = biological target: MAPKAPK2 (Homo sapiens (Human), UniProt P49137); conditions: 1 μM compound, read-out: Percent enzyme activity inhibition, MAPKAPK2
Procedure: as §1

[17] = biological target: CK2a1 (Homo sapiens (Human), UniProt P68400); conditions: 1 μM compound, read-out: Percent enzyme activity inhibition, CK2a1
Procedure: as §1

[18] = biological target: AMPKA1/B1/G2 (Homo sapiens (Human), UniProt Q13131); conditions: 1 μM compound, read-out: Percent enzyme activity inhibition, AMPKA1/B1/G2
Procedure: as §1

[19] = biological target: LCK (Homo sapiens (Human), UniProt P06239); conditions: 1 μM compound, read-out: Percent enzyme activity inhibition, LCK
Procedure: as §1

[20] = biological target: ROCK1 (Homo sapiens (Human), UniProt Q13464); conditions: 1 μM compound, read-out: Percent enzyme activity inhibition, ROCK1
Procedure: as §1

[21] = biological target: p38a (Homo sapiens (Human), UniProt Q16539); conditions: 1 μM compound, read-out: Percent enzyme activity inhibition, p38a
Procedure: as §1

IRAK4, sequence (Q9NWZ3 whole entry): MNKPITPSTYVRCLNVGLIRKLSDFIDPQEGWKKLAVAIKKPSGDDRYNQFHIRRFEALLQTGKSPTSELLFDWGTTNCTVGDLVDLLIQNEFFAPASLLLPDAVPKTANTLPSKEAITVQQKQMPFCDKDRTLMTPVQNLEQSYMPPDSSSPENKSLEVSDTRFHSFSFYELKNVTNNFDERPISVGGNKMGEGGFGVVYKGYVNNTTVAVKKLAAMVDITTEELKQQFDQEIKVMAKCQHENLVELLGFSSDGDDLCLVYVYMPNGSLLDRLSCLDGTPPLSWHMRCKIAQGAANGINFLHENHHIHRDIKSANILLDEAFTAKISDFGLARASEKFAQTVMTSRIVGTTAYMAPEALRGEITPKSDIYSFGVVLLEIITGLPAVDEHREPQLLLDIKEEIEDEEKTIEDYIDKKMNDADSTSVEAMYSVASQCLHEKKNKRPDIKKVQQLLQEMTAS
IKKb, sequence (O14920 whole entry): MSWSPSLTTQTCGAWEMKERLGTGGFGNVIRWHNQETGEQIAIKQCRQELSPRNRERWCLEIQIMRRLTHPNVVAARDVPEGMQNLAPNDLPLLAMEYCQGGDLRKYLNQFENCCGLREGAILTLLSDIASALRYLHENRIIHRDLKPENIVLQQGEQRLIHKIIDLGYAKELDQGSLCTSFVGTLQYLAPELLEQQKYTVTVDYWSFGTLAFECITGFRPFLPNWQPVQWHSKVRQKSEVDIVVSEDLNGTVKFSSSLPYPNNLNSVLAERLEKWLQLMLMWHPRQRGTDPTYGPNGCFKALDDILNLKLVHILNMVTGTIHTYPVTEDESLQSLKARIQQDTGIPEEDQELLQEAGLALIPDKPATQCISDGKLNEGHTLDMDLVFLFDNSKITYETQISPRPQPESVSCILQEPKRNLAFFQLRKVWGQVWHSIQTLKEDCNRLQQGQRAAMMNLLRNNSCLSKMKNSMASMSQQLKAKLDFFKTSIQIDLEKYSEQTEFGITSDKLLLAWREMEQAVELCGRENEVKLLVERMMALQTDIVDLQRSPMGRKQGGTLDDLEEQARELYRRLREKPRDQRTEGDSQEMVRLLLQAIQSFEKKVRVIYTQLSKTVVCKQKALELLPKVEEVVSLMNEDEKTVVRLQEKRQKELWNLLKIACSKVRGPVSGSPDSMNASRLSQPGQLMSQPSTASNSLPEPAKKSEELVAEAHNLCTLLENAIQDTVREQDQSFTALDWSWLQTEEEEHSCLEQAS
Aurora A, sequence (O14965 whole entry): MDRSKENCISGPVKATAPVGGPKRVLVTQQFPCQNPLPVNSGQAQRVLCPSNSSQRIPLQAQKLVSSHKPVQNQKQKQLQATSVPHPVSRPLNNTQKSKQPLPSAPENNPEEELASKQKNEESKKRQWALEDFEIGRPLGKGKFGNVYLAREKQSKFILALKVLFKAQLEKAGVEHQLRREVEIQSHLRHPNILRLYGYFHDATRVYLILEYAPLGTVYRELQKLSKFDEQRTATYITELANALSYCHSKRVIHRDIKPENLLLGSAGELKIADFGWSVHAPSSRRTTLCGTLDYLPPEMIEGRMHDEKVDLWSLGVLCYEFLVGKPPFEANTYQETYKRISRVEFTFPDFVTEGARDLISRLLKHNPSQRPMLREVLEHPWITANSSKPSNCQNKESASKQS
ROCK1, sequence (Q13464 whole entry): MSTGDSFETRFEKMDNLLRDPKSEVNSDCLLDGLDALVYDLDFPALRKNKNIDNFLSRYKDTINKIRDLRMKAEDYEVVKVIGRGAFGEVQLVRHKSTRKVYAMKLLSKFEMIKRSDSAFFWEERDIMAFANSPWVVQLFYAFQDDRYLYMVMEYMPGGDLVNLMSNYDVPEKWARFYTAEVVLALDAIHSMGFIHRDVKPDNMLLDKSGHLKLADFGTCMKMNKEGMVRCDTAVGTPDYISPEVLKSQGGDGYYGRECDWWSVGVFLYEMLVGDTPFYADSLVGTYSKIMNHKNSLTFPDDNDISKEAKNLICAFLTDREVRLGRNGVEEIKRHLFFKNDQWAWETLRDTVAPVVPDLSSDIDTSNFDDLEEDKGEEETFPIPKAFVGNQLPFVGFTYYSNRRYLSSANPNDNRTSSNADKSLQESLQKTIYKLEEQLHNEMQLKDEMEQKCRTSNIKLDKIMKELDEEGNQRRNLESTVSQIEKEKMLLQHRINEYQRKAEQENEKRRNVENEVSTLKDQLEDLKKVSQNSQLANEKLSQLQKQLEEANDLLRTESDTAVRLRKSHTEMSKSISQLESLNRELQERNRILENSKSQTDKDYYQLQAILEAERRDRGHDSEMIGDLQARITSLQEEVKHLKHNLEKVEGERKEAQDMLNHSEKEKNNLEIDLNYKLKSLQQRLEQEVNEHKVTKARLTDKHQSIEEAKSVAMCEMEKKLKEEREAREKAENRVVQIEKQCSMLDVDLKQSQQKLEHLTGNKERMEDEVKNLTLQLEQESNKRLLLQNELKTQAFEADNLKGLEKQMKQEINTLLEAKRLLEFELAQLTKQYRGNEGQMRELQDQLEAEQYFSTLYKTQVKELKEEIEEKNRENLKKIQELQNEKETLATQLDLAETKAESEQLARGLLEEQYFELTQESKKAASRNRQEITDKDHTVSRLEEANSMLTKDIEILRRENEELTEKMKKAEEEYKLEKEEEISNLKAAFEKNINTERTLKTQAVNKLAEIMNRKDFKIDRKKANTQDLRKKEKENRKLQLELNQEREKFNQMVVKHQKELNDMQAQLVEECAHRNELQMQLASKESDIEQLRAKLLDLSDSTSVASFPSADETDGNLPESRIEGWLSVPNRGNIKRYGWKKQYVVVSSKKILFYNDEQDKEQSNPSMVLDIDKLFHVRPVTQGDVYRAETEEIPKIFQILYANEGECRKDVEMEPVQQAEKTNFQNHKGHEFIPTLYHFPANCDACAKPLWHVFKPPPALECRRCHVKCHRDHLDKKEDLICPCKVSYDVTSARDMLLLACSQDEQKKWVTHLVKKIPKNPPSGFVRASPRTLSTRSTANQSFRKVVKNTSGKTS
CHK1, sequence (O14757 whole entry): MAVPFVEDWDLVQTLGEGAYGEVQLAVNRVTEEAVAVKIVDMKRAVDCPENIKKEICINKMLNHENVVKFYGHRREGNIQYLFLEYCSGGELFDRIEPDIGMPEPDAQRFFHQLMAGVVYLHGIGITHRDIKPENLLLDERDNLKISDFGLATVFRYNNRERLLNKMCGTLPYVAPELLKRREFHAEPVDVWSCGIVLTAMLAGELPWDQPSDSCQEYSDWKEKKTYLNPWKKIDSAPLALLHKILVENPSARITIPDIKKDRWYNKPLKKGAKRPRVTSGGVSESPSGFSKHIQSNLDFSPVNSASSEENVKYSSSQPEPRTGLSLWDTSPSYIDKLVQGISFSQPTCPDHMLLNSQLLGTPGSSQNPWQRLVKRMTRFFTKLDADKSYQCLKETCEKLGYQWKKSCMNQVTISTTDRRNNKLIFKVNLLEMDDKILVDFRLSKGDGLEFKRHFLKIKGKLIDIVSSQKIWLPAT
p38a, sequence (Q16539 whole entry): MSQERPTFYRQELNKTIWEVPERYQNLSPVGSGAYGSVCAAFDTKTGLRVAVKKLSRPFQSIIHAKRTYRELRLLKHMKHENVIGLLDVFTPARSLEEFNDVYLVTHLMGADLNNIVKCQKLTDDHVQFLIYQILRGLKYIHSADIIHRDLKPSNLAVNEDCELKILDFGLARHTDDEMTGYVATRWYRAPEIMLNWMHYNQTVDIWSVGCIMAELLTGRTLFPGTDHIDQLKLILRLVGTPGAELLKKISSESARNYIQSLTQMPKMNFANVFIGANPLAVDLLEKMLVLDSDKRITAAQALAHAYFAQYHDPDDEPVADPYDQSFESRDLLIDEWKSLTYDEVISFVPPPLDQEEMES
CAMK4, sequence (Q16566 whole entry): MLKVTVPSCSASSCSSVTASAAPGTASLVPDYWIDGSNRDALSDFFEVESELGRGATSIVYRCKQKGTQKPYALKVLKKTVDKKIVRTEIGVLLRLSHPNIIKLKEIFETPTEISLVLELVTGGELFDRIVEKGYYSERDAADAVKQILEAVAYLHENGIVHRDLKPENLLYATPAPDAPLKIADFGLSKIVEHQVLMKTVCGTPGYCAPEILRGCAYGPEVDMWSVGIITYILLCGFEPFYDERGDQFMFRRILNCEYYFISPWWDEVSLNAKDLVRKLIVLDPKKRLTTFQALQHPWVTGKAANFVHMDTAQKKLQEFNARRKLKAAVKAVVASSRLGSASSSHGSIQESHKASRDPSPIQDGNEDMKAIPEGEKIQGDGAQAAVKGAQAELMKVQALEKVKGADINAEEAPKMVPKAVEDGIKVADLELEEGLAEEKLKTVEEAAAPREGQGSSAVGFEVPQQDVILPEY
CK1g1, sequence (Q9HCP0 whole entry): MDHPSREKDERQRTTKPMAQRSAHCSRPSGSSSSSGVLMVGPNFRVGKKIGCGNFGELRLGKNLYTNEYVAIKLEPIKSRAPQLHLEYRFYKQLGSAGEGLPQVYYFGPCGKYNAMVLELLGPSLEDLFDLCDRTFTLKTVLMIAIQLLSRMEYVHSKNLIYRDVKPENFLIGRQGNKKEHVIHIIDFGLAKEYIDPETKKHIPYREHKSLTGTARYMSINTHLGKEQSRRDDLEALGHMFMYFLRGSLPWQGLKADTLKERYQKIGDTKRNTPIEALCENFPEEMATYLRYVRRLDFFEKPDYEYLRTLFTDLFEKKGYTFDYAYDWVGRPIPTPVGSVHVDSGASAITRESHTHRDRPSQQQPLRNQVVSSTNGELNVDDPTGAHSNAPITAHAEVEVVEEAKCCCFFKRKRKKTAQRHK

Cl.Cl.NCC(C(=O)Nc1ccc2cnccc2c1)c1ccc(B(O)O)cc1 (stereo not drawn) [Compound 10•2HCl]
inhibition at 1 µM [1]: 0% | inhibition at 1 µM [2]: 7% | inhibition at 1 µM [3]: 21% | inhibition at 1 µM [4]: 0% | inhibition at 1 µM [5]: 35% | inhibition at 1 µM [6]: 55% | inhibition at 1 µM [7]: 20% | inhibition at 1 µM [8]: 0% | inhibition at 1 µM [9]: 3% | inhibition at 1 µM [10]: 0% | inhibition at 1 µM [11]: 21% | inhibition at 1 µM [12]: 2% | inhibition at 1 µM [13]: 72% | inhibition at 1 µM [14]: 0% | inhibition at 1 µM [15]: 0% | inhibition at 1 µM [16]: 30% | inhibition at 1 µM [17]: 3% | inhibition at 1 µM [18]: 58% | inhibition at 1 µM [19]: 0% | inhibition at 1 µM [20]: 98% | inhibition at 1 µM [21]: 0%
